In one test the target is T1, Tdp1 (Homo sapiens, UniProt Q9NUW8).
T1 construct: made in house; host or cells: Escherichia coli
Briefly: Real-time detection of Tdp1 activity (5'-FAM/3'-BHQ1 oligonucleotide biosensor). It is filed as biochemical. Conditions: 1.5 nM Tdp1, 50 nM oligonucleotide substrate, 26 °C. The text has this:
We first studied the inhibition potency of our compounds to Tdp1 by using a real-time oligonucleotide biosensor assay that we have previously developed. The assay was based on the ability of Tdp1 to remove the fluorescence quencher from the 3’-end of DNA. The substrate is a 16-mer single-stranded oligonucleotide containing both a 5’-FAM fluorophore and a 3’-BHQ1 quencher.
A fluorophore quencher-coupled DNA-biosensor for real-time measurement of Tdp1 cleavage activity was recently designed in our laboratory. The biosensor is a 16-mer single-stranded oligonucleotide containing both a 5’-FAM fluorophore donor and a quenching 3’-BHQ1 moiety.
Recombinant protein Tdp1 was expressed in EsCherichia coli (pET 16B plasmid containing Tdp1 cDNA provided by Dr. K.W. Caldecott, University of Sussex, United Kingdom) and isolated as described. The reaction mixture in a final volume 200 μL contained Tdp1 reaction buffer (50 mM Tris-HCl, 50 mM NaCl, 7 mM β-mercaptoethanol), 50 nM oligonucleotide substrate, and varied concentrations of potential inhibitor. Purified Tdp1 was added in a final concentration of 1.5 nM.
The reaction mixtures were incubated at a constant temperature of 26 °C in a POLARstar OPTIMA fluorimeter, BMG LABTECH, GmbH, to measure fluorescence intensity every minute (Ex485/Em520 nm). Tdp1 inhibition was calculated by comparing the rate of increase in fluorescence of the biosensor in the presence of the compound to that of DMSO (1.5%) control wells. The measurements were carried out in at least two independent experiments. IC50 values were determined using a six-point concentration response curve. The data were imported into the MARS Data Analysis 2.0 program (BMG LABTECH) and the slope during the linear phase (data from 0 to 7 min) was calculated.

Test [1] concerns the target T2, recombinant Tdp1 (residues 149–608) (Homo sapiens, UniProt Q9NUW8).
T2 construct: recombinant Tdp1 (residues 149–608) was obtained from GenScript; host or cells: E. coli BL21(DE3)
Description: Intrinsic tryptophan fluorescence quenching binding assay. Conditions: 10 µM Tdp1, 20 mM Tris, 250 mM NaCl, pH 8; triplicate. The method, then: The binding of the synthesized compounds to recombinant Tdp1 was also tested (Table 1 and Table 2) by using an intrinsic tryptophan fluorescence quenching assay. […] As our compounds are aromatic in nature, there is a possibility that they may bind to both the active site as well as non-specifically to the DNA/peptide binding pockets. Nonetheless, our results confirmed that the compounds were indeed binders of Tdp1, thus complementing our inhibition data.
pET-28a(+) plasmid encoding recombinant Tdp1 (residues 149–608) was obtained from GenScript. E. coli BL21(DE3) was used for recombinant protein production. Protein production was induced with 1 mM IPTG at 28 °C with overnight incubation. Tdp1 was purified using affinity and size exclusion chromatography. Fluorescence was measured using a PerkinElmer EnSpire Multimode Reader. Tdp1 concentration was 10 μM with varying compound concentrations. The buffer was 20 mM Tris and 250 mM NaCl (pH 8). The excitation wavelength was 280 nm and intrinsic fluorescence was measured at 350 nm. Control experiments with Tdp1 or the compound on its own were also conducted. Background fluorescence arising from the compounds was subtracted from the final spectrum. The total volume per well was 30 μL. The dissociation constant (KD) was calculated using Equation (1), which takes non-specific binding into account. y = Bmaxx/(KD + x) + Nsx(1) where y denotes the changes in fluorescence intensity; x denotes the concentration of the compounds; Bmax denotes the maximum changes in fluorescence intensity; and Ns is a scaling factor for non-specific binding. Experiments were conducted in triplicate.

Experimental findings from paper PMC6832265 (Molecules, 2019) are described below.

T1 sequence (Q9NUW8 whole entry): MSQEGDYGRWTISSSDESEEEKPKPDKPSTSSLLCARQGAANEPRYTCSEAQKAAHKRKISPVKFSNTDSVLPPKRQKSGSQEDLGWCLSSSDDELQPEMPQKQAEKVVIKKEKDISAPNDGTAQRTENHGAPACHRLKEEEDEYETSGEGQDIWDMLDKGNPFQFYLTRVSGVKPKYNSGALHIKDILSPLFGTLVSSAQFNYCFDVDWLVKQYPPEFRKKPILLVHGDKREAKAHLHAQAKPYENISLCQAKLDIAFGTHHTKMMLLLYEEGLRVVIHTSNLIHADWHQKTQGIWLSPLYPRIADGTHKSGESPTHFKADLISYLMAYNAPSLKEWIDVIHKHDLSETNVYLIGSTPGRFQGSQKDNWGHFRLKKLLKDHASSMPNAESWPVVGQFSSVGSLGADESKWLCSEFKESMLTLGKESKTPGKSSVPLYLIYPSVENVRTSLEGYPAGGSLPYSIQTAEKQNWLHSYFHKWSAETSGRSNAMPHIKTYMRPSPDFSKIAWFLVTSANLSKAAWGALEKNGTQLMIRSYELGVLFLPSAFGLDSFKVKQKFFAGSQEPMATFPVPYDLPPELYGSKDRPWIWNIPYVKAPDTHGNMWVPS
T2 sequence (Q9NUW8 149-608): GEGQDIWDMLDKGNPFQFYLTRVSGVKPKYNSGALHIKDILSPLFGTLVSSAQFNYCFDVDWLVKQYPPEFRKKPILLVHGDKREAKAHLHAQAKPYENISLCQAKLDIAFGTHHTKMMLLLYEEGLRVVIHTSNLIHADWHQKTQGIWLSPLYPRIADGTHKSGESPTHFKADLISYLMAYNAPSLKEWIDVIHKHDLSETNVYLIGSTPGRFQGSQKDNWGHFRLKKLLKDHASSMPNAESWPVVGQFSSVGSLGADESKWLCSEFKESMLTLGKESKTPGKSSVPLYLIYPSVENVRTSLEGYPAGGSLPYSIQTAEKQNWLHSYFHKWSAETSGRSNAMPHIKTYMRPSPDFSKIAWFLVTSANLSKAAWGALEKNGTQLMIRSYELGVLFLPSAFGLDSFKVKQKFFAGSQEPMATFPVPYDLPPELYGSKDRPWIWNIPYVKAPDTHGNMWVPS

What is called IC50 is the concentration that gives 50% inhibition. Higher therefore signals weaker potency. For orientation: Kd means the concentration at which binding is half-saturated. For `CC(=O)C1=C(O)C=C2Oc3c(-c4csc(N/N=C/c5c[nH]c6ccccc56)n4)c(O)c(C)c(O)c3[C@@]2(C)C1=O` [(+)-16p, (2R)-4-Acetyl-5,11,13-trihydroxy-2,12-dimethyl-10-{2-[(E)-2-[(1H-indole-3-yl)methylidene] hydrazin-1-yl]-1,3-thiazol-4-yl}-8-oxatricyclo[7.4.0.0^2,7]trideca-1(9),4,6,10,12-pentaen-3-one], it took 0.138 ± 0.003 µM to reach half-maximal inhibition at Tdp1 (IC50). Also, the Kd in test [1] amounted to 268 ± 11 µM.

Regarding `CC(=O)C1=C(O)C=C2Oc3c(-c4csc(N/N=C/c5ccc([N+](=O)[O-])s5)n4)c(O)c(C)c(O)c3[C@@]2(C)C1=O` [(+)-16d, (2R)-4-Acetyl-5,11,13-trihydroxy-2,12-dimethyl-10-{2-[(E)-2-[(5-nitrothiophen-2-yl)methylidene]hydrazin-1-yl]-1,3-thiazol-4-yl}-8-oxatricyclo[7.4.0.0^2,7]trideca-1(9),4,6,10,12-pentaen-3-one], at Tdp1, the midpoint of inhibition, the IC50, lay at 0.07 ± 0.004 µM. For the same compound, the Kd in test [1] turned out to be 597 ± 98 µM.

The compound `COc1ccc(/C=N/Nc2nc(-c3c(O)c(C)c(O)c4c3OC3=CC(O)=C(C(C)=O)C(=O)[C@@]34C)cs2)cc1CSc1cc(C)ccc1C(C)(C)C` [(+)-17g, (2R)-4-Acetyl-10-{2-[(E)-2-[(3-{[(2-tert-butyl-5-methylphenyl)sulfanyl]methyl}-4-methoxyphenyl)methylidene]hydrazin-1-yl]-1,3-thiazol-4-yl}-5,11,13-trihydroxy-2,12-dimethyl-8-oxatricyclo[7.4.0.0^2,7]trideca-1(9),4,6,10,12-pentaen-3-one] yielded an IC50 at Tdp1 of 0.122 ± 0.025 µM. In addition, the Kd in test [1] was found to be 223 ± 42 µM.

Compound `CC(=O)C1=C(O)C=C2Oc3c(-c4csc(N/N=C/c5cccnc5)n4)c(O)c(C)c(O)c3[C@]2(C)C1=O` [(−)-16c, 3-[(1E)-(2-{4-[(1S)-12-Acetyl-3,5,11-trihydroxy-1,4-dimethyl-13-oxo-8-oxatricyclo[7.4.0.0^2,7]trideca-2(7),3,5,9,11-pentaen-6-yl]-1,3-thiazol-2-yl}hydrazin-1-ylidene)methyl]pyridin-1-ium bromide] showed a 50% inhibitory concentration (IC50) on Tdp1 of 0.154 ± 0.018 µM. Further, in test [1], the Kd was found to be 262 ± 25 µM.

On Tdp1, `CC(=O)C1=C(O)C=C2Oc3c(-c4csc(N/N=C/c5ccc(-c6cccc(Cl)c6)o5)n4)c(O)c(C)c(O)c3[C@@]2(C)C1=O` [(+)-16r, (2R)-4-Acetyl-10-{2-[(E)-2-{[5-(3-chlorophenyl)furan-2-yl]methylidene}hydrazin-1-yl]-1,3-thiazol-4-yl}-5,11,13-trihydroxy-2,12-dimethyl-8-oxatricyclo[7.4.0.0^2,7]trideca-1(9),4,6,10,12-pentaen-3-one] registered an IC50 of 0.055 ± 0.008 µM. The dissociation constant Kd in test [1] amounted to 113 ± 52 µM.

With “(2S)-4-Acetyl-10-{2-[(E)-2-({3-[(3,4-difluorophenoxy)methyl]-4-methoxyphenyl}methylidene)hydrazin-1-yl]-1,3-thiazol-4-yl}-5,11,13-trihydroxy-2,12-dimethyl-8-oxatricyclo[7.4.0.0^2,7]trideca-1(9),4,6,10,12-pentaen-3-one [(−)-17e]”, the half-inhibitory concentration (IC50) against Tdp1 was determined as 0.03 ± 0.011 µM. The Kd in test [1] is 130 ± 8 µM.

As to `COc1ccc(/C=N/Nc2nc(-c3c(O)c(C)c(O)c4c3OC3=CC(O)=C(C(C)=O)C(=O)[C@]34C)cs2)cc1Cn1nc(C)c([N+](=O)[O-])c1C` [(−)-17k, (2S)-4-Acetyl-10-{2-[(E)-2-({3-[(3,5-dimethyl-4-nitro-1H-pyrazol-1-yl)methyl]-4-methoxyphenyl}methylidene)hydrazin-1-yl]-1,3-thiazol-4-yl}-5,11,13-trihydroxy-2,12-dimethyl-8-oxatricyclo[7.4.0.0^2,7]trideca-1(9),4,6,10,12-pentaen-3-one], the IC50 at Tdp1 was 0.046 ± 0.005 µM. The equilibrium dissociation constant (Kd) in test [1] was determined as 142 ± 11 µM.

Take `COc1ccc(/C=N/Nc2nc(-c3c(O)c(C)c(O)c4c3OC3=CC(O)=C(C(C)=O)C(=O)[C@@]34C)cs2)cc1COc1ccccc1F` [(+)-17c, (2R)-4-Acetyl-10-{2-[(E)-2-({3-[(2-fluorophenoxy)methyl]-4-methoxyphenyl}methylidene)hydrazin-1-yl]-1,3-thiazol-4-yl}-5,11,13-trihydroxy-2,12-dimethyl-8-oxatricyclo[7.4.0.0^2,7]trideca-1(9),4,6,10,12-pentaen-3-one]: half-maximal inhibition on Tdp1 (IC50) required 0.041 ± 0.007 µM. In addition, the Kd in test [1] was found to be 204 ± 23 µM.

Turning to `CC(=O)C1=C(O)C=C2Oc3c(-c4csc(N/N=C/c5cnc[nH]5)n4)c(O)c(C)c(O)c3[C@@]2(C)C1=O` [(+)-16o, 5-[(1E)-(2-{4-[(1R)-12-Acetyl-3,5,11-trihydroxy-1,4-dimethyl-13-oxo-8-oxatricyclo[7.4.0.0^2,7]trideca-2(7),3,5,9,11-pentaen-6-yl]-1,3-thiazol-2-yl}hydrazin-1-ylidene)methyl]-1H-imidazol-1-ium bromide], at Tdp1, inhibition was half-maximal at 1.69 ± 0.89 µM (IC50). For the same compound, the Kd in test [1] was found to be 38 ± 2 µM.

`CC(=O)C1=C(O)C=C2Oc3c(-c4csc(N/N=C/c5cnc[nH]5)n4)c(O)c(C)c(O)c3[C@]2(C)C1=O` [(−)-16o, 5-[(1E)-(2-{4-[(1S)-12-Acetyl-3,5,11-trihydroxy-1,4-dimethyl-13-oxo-8-oxatricyclo[7.4.0.0^2,7]trideca-2(7),3,5,9,11-pentaen-6-yl]-1,3-thiazol-2-yl}hydrazin-1-ylidene)methyl]-1H-imidazol-1-ium bromide]: half-maximal inhibition against Tdp1 (IC50) was put at 0.57 ± 0.109 µM. For the same compound, the Kd in test [1] was 51 ± 4 µM.

In the case of `COc1ccc(/C=N/Nc2nc(-c3c(O)c(C)c(O)c4c3OC3=CC(O)=C(C(C)=O)C(=O)[C@@]34C)cs2)cc1COc1ccc(Cl)c(C)c1` [(+)-17h, (2R)-4-Acetyl-10-{2-[(E)-2-({3-[(4-chloro-3-methylphenoxy)methyl]-4-methoxyphenyl}methylidene)hydrazin-1-yl]-1,3-thiazol-4-yl}-5,11,13-trihydroxy-2,12-dimethyl-8-oxatricyclo[7.4.0.0^2,7]trideca-1(9),4,6,10,12-pentaen-3-one], it took 0.074 ± 0.001 µM to reach half-maximal inhibition at Tdp1 (IC50). Moreover, the Kd in test [1] was determined as 188 ± 22 µM.

With `CC(=O)C1=C(O)C=C2Oc3c(-c4csc(N/N=C/c5cccn5C)n4)c(O)c(C)c(O)c3[C@@]2(C)C1=O` [(+)-16n, (2R)-4-Acetyl-5,11,13-trihydroxy-2,12-dimethyl-10-{2-[(E)-2-[(1-methyl-pyrrol-2-yl)methylidene]hydrazin-1-yl]-1,3-thiazol-4-yl}-8-oxatricyclo[7.4.0.0^2,7]trideca-1(9),4,6,10,12-pentaen-3-one], the IC50 on Tdp1 turned out to be 0.151 ± 0.014 µM. Moreover, the Kd in test [1] was found to be 719 ± 17 µM.

Consider `COc1ccc(/C=N/Nc2nc(-c3c(O)c(C)c(O)c4c3OC3=CC(O)=C(C(C)=O)C(=O)[C@@]34C)cs2)cc1COc1ccc(F)c(Cl)c1` [(+)-17d, (2R)-4-Acetyl-10-{2-[(E)-2-({3-[(3-chloro-4-fluorophenoxy)methyl]-4-methoxyphenyl}methylidene)hydrazin-1-yl]-1,3-thiazol-4-yl}-5,11,13-trihydroxy-2,12-dimethyl-8-oxatricyclo[7.4.0.0^2,7]trideca-1(9),4,6,10,12-pentaen-3-one], for which, at Tdp1, the midpoint of inhibition, the IC50, lay at 0.077 ± 0.003 µM. Besides, the Kd in test [1] is 130 ± 29 µM.

With `COc1ccc(/C=N/Nc2nc(-c3c(O)c(C)c(O)c4c3OC3=CC(O)=C(C(C)=O)C(=O)[C@@]34C)cs2)cc1Cn1nc(C)c([N+](=O)[O-])c1C` [(+)-17k, (2R)-4-Acetyl-10-{2-[(E)-2-({3-[(3,5-dimethyl-4-nitro-1H-pyrazol-1-yl)methyl]-4-methoxyphenyl}methylidene)hydrazin-1-yl]-1,3-thiazol-4-yl}-5,11,13-trihydroxy-2,12-dimethyl-8-oxatricyclo[7.4.0.0^2,7]trideca-1(9),4,6,10,12-pentaen-3-one], half-maximal inhibition against Tdp1 (IC50) required 0.054 ± 0.008 µM. Also, the Kd in test [1] came out at 156 ± 8 µM.

On to “(2S)-4-Acetyl-5,11,13-trihydroxy-2,12-dimethyl-10-{2-[(E)-2-[(thiophen-3-yl)methylidene] hydrazin-1-yl]-1,3-thiazol-4-yl}-8-oxatricyclo[7.4.0.0^2,7]trideca-1(9),4,6,10,12-pentaen-3-one amine [(−)-16j]”, for which, at Tdp1, the midpoint of inhibition, the IC50, lay at 0.04 ± 0.003 µM. The Kd in test [1] was determined as 771 ± 46 µM.
